The values that follow come from patent US20240058240A1, “COMPOUNDS AS SELF-TANNING SUBSTANCES AND TANNING COMPOSITIONS THEREOF” (CHEMCOM S.A., priority 2020, published 2024).

For one experiment, the target named is T1, OR7C1 (Homo sapiens, UniProt O76099).
T1 construct: transfected with a plasmid containing the CRE-luciferase and a plasmid containing the olfactory receptor; expressed in transfected cells; host or cells: HEK293T-RTP1A1/RTP2 (HEK293T stably expressing the chaperones RTP1A1 and RTP2)
T1 sequence (O76099 1-320): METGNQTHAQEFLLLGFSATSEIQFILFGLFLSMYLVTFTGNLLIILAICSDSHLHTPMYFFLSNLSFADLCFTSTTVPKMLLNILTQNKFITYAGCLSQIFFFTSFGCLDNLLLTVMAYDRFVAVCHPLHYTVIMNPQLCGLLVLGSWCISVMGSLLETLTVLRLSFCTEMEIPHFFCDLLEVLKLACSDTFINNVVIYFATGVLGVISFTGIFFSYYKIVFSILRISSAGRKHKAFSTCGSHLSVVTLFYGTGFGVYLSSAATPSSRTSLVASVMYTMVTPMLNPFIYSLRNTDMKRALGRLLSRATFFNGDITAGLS
As to the kind of experiment: Luciferase-based CRE gene reporter assay, dose-response on OR7C1. The settings on record: negative logarithm of the EC50 in Moles; semi-logarithmic dilutions from 1 mM to 316 nM on OR7C1. The format is cell-based. The procedure:
HEK293T-RTP1A1/RTP2 cells were maintained in minimal essential medium (EMEM, Lonza) containing 10% fetal bovine serum (M10). These cells were generated by transfecting HEK293T (Thermofisher Scientific, cat ref: R70007) with an expression vector containing the sequences of the chaperone proteins RTP1A1 and RTP2 and a resistance gene to puromycin, using Lipofectamine 2000. The recombinant cell population, used in these experiments, was selected by adding 10 μg/ml of puromycin into the culture medium and subsequently subcloned (WO 2014/191047 A1).
Potential OR7C1 agonists were diluted at a concentration of 1 mole/liter (M) into an organic solvent such as Dimethyl Sulfoxide (DMSO) or Ethanol to generate stock solutions. […]
For concentration-response analysis, serial dilutions of the tested molecules were prepared from stock solutions in EMEM plated into 96-well plates.
For the dose-response analysis, a Luciferase-based gene reporter assay (Promega, Leiden, the Netherlands) was used. Briefly, cells were platted on poly-D-lysine-coated 96-well plates and transfected with a plasmid containing the CRE-luciferase and a plasmid containing the olfactory receptor. Sixteen hours after transfection, the culture medium was replaced by serum-free EMEM containing the tested compounds at a determined concentration. After four hours of incubation at 37° C., cells were lysed and processed for luminescence measurement. Luminescence emission was recorded. Results were expressed as luciferase activity ([…] (RLU)) or as percentage of the response induced by 10 μM of the adenylate cyclase activator Forskolin. An empty plasmid is used as negative control.
Dose-response analyses using the luciferase-based reporter assay were performed using semi-logarithmic serial dilutions of the compounds, from 1 mM to 316 nM, on OR7C1. 46 compounds were tested in concentration-response analyses. In each experiment, an empty vector (pEFIBRHO) was used as negative control. Values are given as the negative logarithm of the EC50 in Moles.
Turning to “2-(2,2,7,7-Tetramethyl-5-tricyclo[6.2.1.01,6]undec-4-enyl)butan-1-ol [Compound 28]”, the “-LogEC50 (average n > 3)” value amounted to 6.6.

On to “5-(1-Methoxybutan-2-yl)-2,2,7,7-tetramethyltricyclo[6.2.1.01,6]undec-5-ene [Compound 29]”, for which the “-LogEC50 (average n > 3)” value was found to be 5.2.

For the molecule Hydroxyambran [Compound 41], the “-LogEC50 (average n > 3)” value is given as 5.5.

The experiment is the same for the next values; noted with them: negative logarithm of the EC50 in Moles; semi-logarithmic dilutions from 1 mM to 316 nM on OR7C1; read-out: -LogEC50 (average n > 3) (converted).
Consider `CCCC(O)COC1C(C)CCCC1(C)C` (mixture of isomers) [Compound 14, 1-((2,2,6-trimethylcyclohexyl)oxy)pentan-2-ol], for which the EC50 is 126 µM.

Consider `CCC(O)COC1C(C)CCCC1(C)C` (mixture of isomers) [Compound 15, 1-((2,2,6-trimethylcyclohexyl)oxy)butan-2-ol], for which the EC50 was 126 µM.

Turning to `CC1(C)/C(=C\CO)C2CCC1C2` (racemic) [Compound 8, DL-Patchenol], the EC50 was 31.6 µM.

As for `CCC1OC2CC(C)(C)[C@@]34CC[C@@H](C3)C(C)(C)C4C2O1` (stereo in doubt) [Compound 20, 6-Ethyl-2,2,10,10-tetramethyl-5,7-dioxatetracyclo[9.2.1.01,9.04,8]tetradecane], the EC50 is 12.6 µM.

For the molecule `CC1OC2CC(C)(C)[C@@]34CC[C@@H](C3)C(C)(C)C4C2O1` (stereo in doubt) [Compound 23, 2,2,6,10,10-Pentamethyl-5,7-dioxatetracyclo[9.2.1.01,9.04,8]tetradecane], the EC50 is 5.01 µM.

Regarding `CC1(C)C2C3OCOC3CC(C)(C)[C@]23CC[C@H]1C3` (stereo in doubt) [Compound 24, 2,2,10,10-Tetramethyl-5,7-dioxatetracyclo[9.2.1.01,9.04,8]tetradecane], the EC50 is 10 µM.

On to `COC[C@@H](C)C1=C2C(C)(C)[C@H]3CC[C@@]2(C3)C(C)(C)CC1` (stereo in doubt) [Compound 26, 5-(1-Methoxypropan-2-yl)-2,2,7,7-tetramethyltricyclo[6.2.1.01,6]undec-5-ene], for which the EC50 is 2.51 µM.

Turning to `CC1(C)CCC[C@]2(C)C[C@]3(CCC12)CO3` (stereo in doubt) [Compound 38, 4,4,8a-Trimethylspiro[2,3,4a,5,6,8-hexahydro-1H-naphthalene-7,2′-oxirane]], the EC50 was 50.1 µM.

Take `CCCC(O)CCC1C(C)CCCC1(C)C` (centres unmarked) [Compound 1, Norlimbanol]: the EC50 was 3.98 µM.

On to `CCC(O)COC1CCCCC1C(C)(C)C` (centres unmarked) [Compound 2, Ambercore], for which the EC50 is 12.6 µM.

As for `CCC12CCC3C(C)(C)CCCC3(C)C1COC2` (centres unmarked) [Compound 3, Grisalva], the EC50 is 25.1 µM.

Consider `CCCC(O)COC1C2(C)CCC(C2)C1(C)C` (centres unmarked) [Compound 5, 1-((1,3,3-trimethylbicyclo[2.2.1]heptan-2-yl)oxy)pentan-2-ol], for which the EC50 was 50.1 µM.

Regarding `CCCC(=O)COC1C2(C)CCC(C2)C1(C)C` (centres unmarked) [Compound 6, 1-((1,3,3-trimethylbicyclo[2.2.1]heptan-2-yl)oxy)pentan-2-one], the EC50 was 50.1 µM.

In the case of `CCC(O)COC1C2(C)CCC(C2)C1(C)C` (centres unmarked) [Compound 7, 1-((1,3,3-trimethylbicyclo[2.2.1]heptan-2-yl)oxy)butan-2-ol], the EC50 is 50.1 µM.

Consider `CC(C)[C@H]1OCC[C@]2(CC3CC[C@]2(C)C3(C)C)O1` [Compound 9, Belambre], for which the EC50 was 1.58 µM.

Turning to `CC1OC[C@H](C)C2(CC3CCC2(C)C3(C)C)O1` (stereo partly drawn) [Compound 10, 1′,2,5(S),7′,7′-Pentamethyl-spiro[1,3-dioxane-4,2′-bicyclo[2.2.1]heptane]], the EC50 was 2.51 µM.

`CC1OCC(C)C2(CC3CCC2(C)C3(C)C)O1` (centres unmarked) [Compound 11, 1′,2,5,7′,7′-Pentamethylspiro[1,3-dioxane-4,2′-bicyclo[2.2.1]heptane]]: the EC50 was 2 µM.

As for `CC1CCC2C(C2(C)C)C12COC(C)(C)OC2` (centres unmarked) [Compound 12, Spirambrene], the EC50 was 12.6 µM.

`CC(C)[C@]12C[C@@H]3OC(C)(C)O[C@]3(C)[C@H](C1)C(C)(C)C2` [Compound 13, 2,4,4,10,10-Pentamethyl-8-propan-2-yl-3,5-dioxatricyclo[6.2.1.02,6]undecane]: the EC50 is 0.398 µM.

With `CC1(C)CCC[C@]2(C)[C@H]3CCO[C@]3(C)CC[C@@H]12` [Compound 18, Ambroxan or (−)-Ambroxide], the EC50 was 31.6 µM.

Take `CC(=O)OCC1CCC(C)(C)C23CC4C[C@H]2C13C4(C)C` (some centres unmarked) [Compound 19, Amboryl acetate]: the EC50 was 63.1 µM.

Take `CC(C=O)C1=C2C(C)(C)[C@H]3CC[C@@]2(C3)C(C)(C)CC1` (some centres unmarked) [Compound 21, 5-(1-Oxopropan-2-yl)isolongifol-5-ene]: the EC50 is 0.501 µM.

As for `CC(O)C(C)C1=C2C(C)(C)[C@H]3CC[C@@]2(C3)C(C)(C)CC1` (some centres unmarked) [Compound 22, 5-(3-Hydroxybutan-2-yl)isolongifol-5-ene], the EC50 was 1.58 µM.

In the case of `CCC(CO)C1=C2C(C)(C)[C@H]3CC[C@@]2(C3)C(C)(C)CC1` (some centres unmarked) [Compound 27, 5-(1-Hydroxybutan-2-yl)isolongifol-5-ene], the EC50 is 3.16 µM.

As to `CCC(COC)C1=C2C(C)(C)[C@H]3CC[C@@]2(C3)C(C)(C)CC1` (some centres unmarked) [Compound 30, 5-(1-Methoxybutan-2-yl)isolongifol-5-ene], the EC50 was 2.51 µM.

For the molecule `CCC(COC)C1=CCC(C)(C)[C@@]23CC[C@@H](C2)C(C)(C)C13` (some centres unmarked) [Compound 31, 5-(1-methoxybutan-2-yl)isolongifol-4-ene], the EC50 is 3.98 µM.

As for `CC1(C)C2C(=O)CCC(C)(C)[C@]23CC[C@H]1C3` (stereo partly drawn) [Compound 32, (1S,8S)-2,2,7,7-Tetramethyltricyclo[6.2.1.01,6]undecan-5-one], the EC50 was 20 µM.

Take `CC(=O)C1(C)CC2=C(CCCC2(C)C)CC1C` (centres unmarked) [Compound 34, Sylvamber]: the EC50 was 25.1 µM.

As for `CC1O[C@@]12CC[C@H]1C(C)(C)CCC[C@]1(C)[C@H]2C` (some centres unmarked) [Compound 35, 3′,4,4,8,8a-Pentamethylspiro[2,3,4a,5,6,8-hexahydro-1H-naphthalene-7,2′-oxirane]], the EC50 is 31.6 µM.

For `CC1O[C@@]12CC[C@H]1C(C)(C)CCC[C@]1(C)C2` (some centres unmarked) [Compound 36, 3′,4,4,8a-Tetramethylspiro[2,3,4a,5,6,8-hexahydro-1H-naphthalene-7,2′-oxirane]], the EC50 is 20 µM.

As for `C[C@H]1[C@]2(CCC3C(C)(C)CCC[C@@]31C)CO2` (some centres unmarked) [Compound 37, 4,4,8,8a-Tetramethylspiro[2,3,4a,5,6,8-hexahydro-1H-naphthalene-7,2′-oxirane]], the EC50 was 501 µM.

With `CC(CO)C1CCC(C)(C)[C@@]23CC[C@@H](C2)C(C)(C)C13` (some centres unmarked) [Compound 39, 5-(1-Hydroxypropan-2-yl)isolongifolane], the EC50 was 1.58 µM.

As for `CCOCOC1CCCCCCCCCCC1` [Compound 40, Boisambrene], the EC50 is 50.1 µM.

As for `CC(=O)C1CC/C(C)=C\CC/C(C)=C\C/C=C\1C` (centres unmarked) [Compound 42, Cyclisone/Trimofix], the EC50 is 20 µM.

As for `CC1(C)C/C=C\CC/C=C\CCC2OC21C` (centres unmarked) [Compound 43, Cedroxyde], the EC50 is 2 µM.

In the case of `C/C1=C/CCC2(C)OC2CC/C(C)=C\CC1` (centres unmarked) [Compound 44, (E)-woody epoxide], the EC50 is 7.94 µM.

`C[C@]12CCC(=O)C[C@@H]1CC[C@@H]1[C@@H]2CC[C@]2(C)C=CC[C@@H]12` [Compound 45, 5α-Androst-16-en-3-one]: the EC50 was 20 µM.

Regarding `C[C@@]12C=CCC1C1CC=C3C[C@@H](O)CC[C@]3(C)C1CC2` (some centres unmarked) [Compound 46, Androstadienol], the EC50 was 12.6 µM.
